{"source": "patent US20220370416A1", "about": "“COMPOUNDS AND METHODS FOR TARGETED DEGRADATION OF KRAS” (Arvinas Operations, Inc., priority 2020, published 2022)", "key": {"pErk": {"tested_on": "pErk", "conditions": "MIA PaCa-2, 2.5 μM LC-2, 6 and 24 hours"}, "KRAS^G12C [1]": {"target": "T1, KRAS^G12C (Homo sapiens, UniProt P01116, G12C)", "test": "KRAS^G12C degradation by immunoblot in NCI-H358 cells", "format": "cell-based", "set-up": "MRTX849-VHL bifunctional compounds engage and degrade endogenous KRAS^G12C in NCI-H2030 cells; endogenous in cells; host or cells: NCI-H2030, NCI-H358, MIA PaCa-2, SW1573, NCI-H23", "conditions": "NCI-H358, heterozygous KRAS^G12C", "procedure": "NCI-H2030 (CRL-5914), MIA PaCa-2 (CRL-1420), NCI-H23 (CRL-5800), NCI-H358 (CRL-5807), and HCT-116 (CCL-247) cells were obtained from ATCC, expanded immediately, and frozen down. Vials were thawed and used within 20 passages. SW1573 cells were a gift from Arvinas and were handled in the same manner. NCI-H2030, NCI-H23, and NCI-H358 were cultured in RPMI (ATCC30-2001) supplemented with 10% FBS (Biological Industries; cat. no. S1480) and 1% Penicillin-Streptomycin (ThermoFisher; cat. no. 15140122). HCT-116 cells were maintained in high glucose DMEM (ThermoFisher; cat. no. 11965084) supplemented as above. […]\nCell lysates were clarified at 21000×g for 15 mins at 4° C. Protein levels were quantified using a 50:1 mixture of bicinchoninic acid solution (Millipore Sigma; cat. no. B9643) and 4% (w/v) copper(II) sulfate solution (Millipore Sigma; cat. no. C2284) incubated at 37° C. for 30 mins. Absorbance values at 560 nm were read on an EnVision 2101 Multilabel Reader (PerkinElmer). […]\nBand intensities were quantified using BioRad's Image Lab Software. Total KRAS levels were examined by quantifying levels of both conjugated KRAS^G12C and unbound KRAS (wt or mutant) using an analysis box that spanned the two bands. This same sized box was used to quantify unbound KRAS in DMSO treated samples to account for background, except for LC-2 Epimer in FIGS. 6A and 6B. […]"}, "KRAS^G12C [2]": {"target": "T1, KRAS^G12C", "test": "KRAS^G12C degradation by immunoblot in MIA PaCa-2 cells", "format": "cell-based", "set-up": "MRTX849-VHL bifunctional compounds engage and degrade endogenous KRAS^G12C in NCI-H2030 cells; endogenous in cells; host or cells: NCI-H2030, NCI-H358, MIA PaCa-2, SW1573, NCI-H23", "conditions": "for KRAS, two-way ANOVA significance vs DMSO: FIG. 10A", "procedure": "NCI-H2030 (CRL-5914), MIA PaCa-2 (CRL-1420), NCI-H23 (CRL-5800), NCI-H358 (CRL-5807), and HCT-116 (CCL-247) cells were obtained from ATCC, expanded immediately, and frozen down. Vials were thawed and used within 20 passages. SW1573 cells were a gift from Arvinas and were handled in the same manner. NCI-H2030, NCI-H23, and NCI-H358 were cultured in RPMI (ATCC30-2001) supplemented with 10% FBS (Biological Industries; cat. no. S1480) and 1% Penicillin-Streptomycin (ThermoFisher; cat. no. 15140122). HCT-116 cells were maintained in high glucose DMEM (ThermoFisher; cat. no. 11965084) supplemented as above. MIA PaCa-2 cells were cultured in high glucose DMEM supplemented with 10% FBS, 2.5% horse serum (ThermoFisher; cat. no. 26050-088; lot 2109875), and 1% Penicillin-Streptomycin. SW1573 cells were maintained in DMEM/F12 Nutrient Mix with GlutaMAX supplement (ThermoFisher; cat. no. 10565018) with 10% FBS and 1% Penicillin-Streptomycin added. DPBS (ThermoFisher; cat. no. 14190250) was used to wash cells and 0.25% Trypsin-EDTA (ThermoFisher; cat. no. […]) was used to detach cells for passaging. […] The VHL ligand was generously provided by Arvinas.\nBetween 2.5×10^5 and 6.0×10^5 cells were seeded into 6-well plates (Corning; cat. no. 353046). The next day, media was removed and cells were treated with 2.5 μM LC-2 for 1, 2, 4, 8, 12, or 24 hours. […] For 24-hour time course experiments, cells were treated at the indicated times and concurrently lysed in RIPA buffer supplemented as described previously. For longer time course experiments and time courses in which cells were treated with LC-2 or LC-2 Epimer, cells were concurrently treated with either compound, then lysed by scraping in RIPA buffer at the indicated time points.\nCell lysates were clarified at 21000×g for 15 mins at 4° C. Protein levels were quantified using a 50:1 mixture of bicinchoninic acid solution (Millipore Sigma; cat. no. B9643) and 4% (w/v) copper(II) sulfate solution (Millipore Sigma; cat. no. C2284) incubated at 37° C. for 30 mins. Absorbance values at 560 nm were read on an EnVision 2101 Multilabel Reader (PerkinElmer). Proteins were separated using 26 well Criterion TGX precast 4-15% (cat. no. 5671085) or 8-16% (cat. no. 5671105) gradient midi gels. After separation, proteins were transferred to nitrocellulose or PVDF membranes at 76 V for 2 hours at 4° C. Blots were then blocked in 5% milk in tris-buffered saline with Tween-20 (TBST; 20 mM Tris, 150 mM NaCl, 0.02% Tween-20). After blocking, blots were incubated in primary antibody overnight (12-18 hours) at 4° C. or for 2 hours at room temperature with mild agitation at the manufacturer's indicated dilution in either 5% milk or 5% BSA in TBST. Blots were then washed thrice with TBST for 5 mins at room temperature. After washing, blots were incubated with 1:5,000-1:10,000 of donkey anti-rabbit (GE Life Sciences; NA934) or sheep anti-mouse (GE Life Sciences; NA931) secondary antibody diluted in 5% milk for 1 hour at room temperature with mild agitation. Blots were again washed thrice with TBST for 5 mins. Chemiluminescent signal was generated using Amersham ECL Prime Western Blotting Detection Reagant (GE Life Sciences; cat. no. RPN2232) or SuperSignal West Femto Maximum Sensitivity Substrate (ThermoFisher; cat. no. 34095). Images were obtained using a Bio-Rad ChemiDoc Imager. Fluorescent α-tubulin images were collected with the Bio-Rad ChemiDoc Imager using an Alexa488 filter. The primary antibodies used in this work include: KRAS (LSBio; clone 2C1; cat. no. LS-C175665), p-p42/44 MAPK (phospho T202/Y204) (pErk; Cell Signaling Technologies (CST); cat. no. 4370S or 9106S), p42/44 MAPK (Erk1/2; CST; cat. no. 4695S), alpha-tubulin (CST; 2144S), and alpha-tubulin w/AlexaFluor488 (Millipore; cat. no. 16-232).\nBand intensities were quantified using BioRad's Image Lab Software."}}}
{"smiles": "C=C(F)C(=O)N1CCN(c2nc(OC[C@@H]3CCCN3CCCOCCC(=O)N[C@H](C(=O)N3C[C@H](O)C[C@H]3C(=O)NCc3ccc(-c4scnc4C)cc3)C(C)(C)C)nc3c2CCN(c2cccc4cccc(Cl)c24)C3)C[C@@H]1CC#N", "note": "[LC-2, (2S,4R)-1-((S)-2-(3-(3-((S)-2-(((7-(8-chloronaphthalen-1-yl)-4-((S)-3-(cyanomethyl)-4-(2-fluoroacryloyl)piperazin-1-yl)-5,6,7,8-tetrahydropyrido[3,4-d]pyrimidin-2-yl)oxy)methyl)pyrrolidin-1-yl)propoxy)propanamido)-3,3-dimethylbutanoyl)-4-hydroxy-N-(4-(4-methylthiazol-5-yl)benzyl)pyrrolidine-2-carboxamide]", "values": [{"measurement": "pErk", "setting": "pErk", "result": "suppressed"}, {"measurement": "DC50", "setting": "KRAS^G12C [1]", "result": "520 ± 300", "unit": "nM"}, {"measurement": "Dmax", "setting": "KRAS^G12C [1]", "result": "> 40", "unit": "%"}, {"measurement": "DC50", "setting": "KRAS^G12C [2]; MIA PaCa2, homozygous KRAS^G12C", "result": "320 ± 80", "unit": "nM"}, {"measurement": "Dmax", "setting": "KRAS^G12C [2]; MIA PaCa-2", "result": "> 75", "unit": "%"}, {"measurement": "duration of KRAS degradation", "setting": "KRAS^G12C [2]; MIA PaCa-2, 2.5 μM", "result": "sustained up to 72 hours"}, {"measurement": "time to maximal KRAS degradation", "setting": "KRAS^G12C [2]; MIA PaCa-2, 2.5 μM, 6, 24, 48, 72 hours", "result": "≤ 24", "unit": "h"}, {"measurement": "KRAS, two-way ANOVA significance vs DMSO", "setting": "KRAS^G12C [2]; MIA PaCa-2, 2.5 μM, 6 hours", "result": "** (** p < 0.01)"}, {"measurement": "KRAS, two-way ANOVA significance vs DMSO", "setting": "KRAS^G12C [2]; MIA PaCa-2, 2.5 μM, 24 hours", "result": "** (** p < 0.01)"}]}
